Literature values, collected in patent US8273732B2, “Compositions for combating beta-lactamase-medicated antibiotic resistance using beta-lactamase inhibitors useful for injection” (Venus Remedies Limited, priority 2004, dated 2012).
Values after ≈ are worked out from the molar mass of the structure shown. Counter-ions that a name gives are not always drawn.

Assays:
Acinetobacter baumannii = settings: 156 clinical isolates of A. baumannii

SMILES | solubility in ethanol (ethanol) | solubility in methanol (methanol) | solubility in water (water) | MIC (90) (Acinetobacter baumannii)
CO/N=C(\C(=O)N[C@@H]1C(=O)N2C(C(=O)O)=C(CSc3nc(=O)c(=O)[nH]n3C)CS[C@H]12)c1csc(N)n1 [ceftriaxone sodium, (6R,7R)-7-[2-(2-amino-4-thiazolyl)glyoxylamido]-8-oxo-3-[[(1,2,5,6-tetrahydro-2-methyl-5,6-dioxo-as-triazin-3-yl)thio]methyl]-5-thia-1-azabicyclo[4.2.0]oct-2-ene-2-carboxylic acid, 7^2-(Z)-(O-methyloxime), disodium salt, sesquaterhydrate] | very slightly soluble | sparingly soluble | readily soluble | 
CC1(C)[C@H](C(=O)O)N2C(=O)C[C@H]2S1(=O)=O [Sulbactam, sulbactam] |  |  |  | 32 mg/L (≈ 137 µM)
